Assay results published in ChEMBL document CHEMBL3272010, “Antimycotic imidazoles. 3. Synthesis and antimycotic properties of 1-[2-(aryloxyalkyl)-2-phenylethyl]-1H-imidazoles” (1977).
Calls of active or inactive are those of the source. No cut-off for these calls is given here.

tested on: Cryptococcus neoformans; test: Antifungal activity against Cryptococcus neoformans assessed as lowest dose required to total inhibition of fungal growth; format: functional

Structure (SMILES) | GI [µg/mL]
Clc1ccc(OCCCC(Cn2ccnc2)c2ccc(Cl)cc2Cl)cc1.O=C(O)C(=O)O (stereo not given) | 10
Clc1ccc(OCCC(Cn2ccnc2)c2ccc(Cl)cc2Cl)c(Cl)c1.O=C(O)C(=O)O (stereo not given) | <1
Clc1ccc(C(CCOc2ccccc2)Cn2ccnc2)c(Cl)c1.O=C(O)C(=O)O (stereo not given) | <1
Clc1ccc(C(CCCOc2ccc(Br)cc2)Cn2ccnc2)c(Cl)c1.O=C(O)C(=O)O (stereo not given) | 10
Fc1ccc(OCCC(Cn2ccnc2)c2ccc(Cl)cc2Cl)cc1.O=C(O)C(=O)O (stereo not given) | <1
Clc1ccc(C(CCOc2ccccc2Cl)Cn2ccnc2)c(Cl)c1.O=C(O)C(=O)O (stereo not given) | <1

tested on: Sporothrix schenckii; test: Antifungal activity against Sporothrix schenckii assessed as lowest dose required to total inhibition of fungal growth; format: functional

Structure (SMILES) | GI [µg/mL]
Clc1ccc(OCCCC(Cn2ccnc2)c2ccc(Cl)cc2Cl)cc1.O=C(O)C(=O)O (stereo not given) | <1
Clc1ccc(OCCC(Cn2ccnc2)c2ccc(Cl)cc2Cl)c(Cl)c1.O=C(O)C(=O)O (stereo not given) | 100
Clc1ccc(C(CCOc2ccccc2)Cn2ccnc2)c(Cl)c1.O=C(O)C(=O)O (stereo not given) | 10
Clc1ccc(C(CCCOc2ccc(Br)cc2)Cn2ccnc2)c(Cl)c1.O=C(O)C(=O)O (stereo not given) | 100
Fc1ccc(OCCC(Cn2ccnc2)c2ccc(Cl)cc2Cl)cc1.O=C(O)C(=O)O (stereo not given) | 10
Clc1ccc(C(CCOc2ccccc2Cl)Cn2ccnc2)c(Cl)c1.O=C(O)C(=O)O (stereo not given) | 10

tested on: Erysipelothrix rhusiopathiae; test: Antibaterial activity against Erysipelothrix insidiosa assessed as lowest dose required to total inhibition of bacterial growth; format: functional

Structure (SMILES) | GI [µg/mL]
Clc1ccc(OCCCC(Cn2ccnc2)c2ccc(Cl)cc2Cl)cc1.O=C(O)C(=O)O (stereo not given) | <1
Clc1ccc(OCCC(Cn2ccnc2)c2ccc(Cl)cc2Cl)c(Cl)c1.O=C(O)C(=O)O (stereo not given) | <1
Clc1ccc(C(CCOc2ccccc2)Cn2ccnc2)c(Cl)c1.O=C(O)C(=O)O (stereo not given) | 1
Clc1ccc(C(CCCOc2ccc(Br)cc2)Cn2ccnc2)c(Cl)c1.O=C(O)C(=O)O (stereo not given) | <1
Fc1ccc(OCCC(Cn2ccnc2)c2ccc(Cl)cc2Cl)cc1.O=C(O)C(=O)O (stereo not given) | <1
Clc1ccc(C(CCOc2ccccc2Cl)Cn2ccnc2)c(Cl)c1.O=C(O)C(=O)O (stereo not given) | <1

tested on: Trichophyton mentagrophytes; test: Antifungal activity against Trichophyton mentagrophytes assessed as lowest dose required to total inhibition of fungal growth; format: functional

Structure (SMILES) | GI [µg/mL]
Clc1ccc(OCCCC(Cn2ccnc2)c2ccc(Cl)cc2Cl)cc1.O=C(O)C(=O)O (stereo not given) | <1
Clc1ccc(OCCC(Cn2ccnc2)c2ccc(Cl)cc2Cl)c(Cl)c1.O=C(O)C(=O)O (stereo not given) | <1
Clc1ccc(C(CCOc2ccccc2)Cn2ccnc2)c(Cl)c1.O=C(O)C(=O)O (stereo not given) | <1
Clc1ccc(C(CCCOc2ccc(Br)cc2)Cn2ccnc2)c(Cl)c1.O=C(O)C(=O)O (stereo not given) | <1
Fc1ccc(OCCC(Cn2ccnc2)c2ccc(Cl)cc2Cl)cc1.O=C(O)C(=O)O (stereo not given) | <1
Clc1ccc(C(CCOc2ccccc2Cl)Cn2ccnc2)c(Cl)c1.O=C(O)C(=O)O (stereo not given) | <1

tested on: Candida albicans; test: Antifungal activity against Candida albicans infected in guinea pig at 10 mg/kg, po qd; format: functional, organism-based; set-up: dose 10 mg/kg

Structure (SMILES) | Activity
Clc1ccc(OCCCC(Cn2ccnc2)c2ccc(Cl)cc2Cl)cc1.O=C(O)C(=O)O (stereo not given) | inactive
Clc1ccc(OCCC(Cn2ccnc2)c2ccc(Cl)cc2Cl)c(Cl)c1.O=C(O)C(=O)O (stereo not given) | Active
Clc1ccc(C(CCOc2ccccc2)Cn2ccnc2)c(Cl)c1.O=C(O)C(=O)O (stereo not given) | inactive
Clc1ccc(C(CCCOc2ccc(Br)cc2)Cn2ccnc2)c(Cl)c1.O=C(O)C(=O)O (stereo not given) | inactive
Fc1ccc(OCCC(Cn2ccnc2)c2ccc(Cl)cc2Cl)cc1.O=C(O)C(=O)O (stereo not given) | Active
Clc1ccc(C(CCOc2ccccc2Cl)Cn2ccnc2)c(Cl)c1.O=C(O)C(=O)O (stereo not given) | inactive

tested on: Candida tropicalis; test: Antifungal activity against Candida tropicalis assessed as lowest dose required to total inhibition of fungal growth; format: functional

Structure (SMILES) | GI [µg/mL]
Clc1ccc(OCCCC(Cn2ccnc2)c2ccc(Cl)cc2Cl)cc1.O=C(O)C(=O)O (stereo not given) | >100
Clc1ccc(OCCC(Cn2ccnc2)c2ccc(Cl)cc2Cl)c(Cl)c1.O=C(O)C(=O)O (stereo not given) | >100
Clc1ccc(C(CCOc2ccccc2)Cn2ccnc2)c(Cl)c1.O=C(O)C(=O)O (stereo not given) | 100
Clc1ccc(C(CCCOc2ccc(Br)cc2)Cn2ccnc2)c(Cl)c1.O=C(O)C(=O)O (stereo not given) | >100
Fc1ccc(OCCC(Cn2ccnc2)c2ccc(Cl)cc2Cl)cc1.O=C(O)C(=O)O (stereo not given) | >100
Clc1ccc(C(CCOc2ccccc2Cl)Cn2ccnc2)c(Cl)c1.O=C(O)C(=O)O (stereo not given) | >100

tested on: Microsporum canis; test: Antifungal activity against Microsporum canis assessed as lowest dose required to total inhibition of fungal growth; format: functional

Structure (SMILES) | GI [µg/mL]
Clc1ccc(OCCCC(Cn2ccnc2)c2ccc(Cl)cc2Cl)cc1.O=C(O)C(=O)O (stereo not given) | 10
Clc1ccc(OCCC(Cn2ccnc2)c2ccc(Cl)cc2Cl)c(Cl)c1.O=C(O)C(=O)O (stereo not given) | 10
Clc1ccc(C(CCOc2ccccc2)Cn2ccnc2)c(Cl)c1.O=C(O)C(=O)O (stereo not given) | 10
Clc1ccc(C(CCCOc2ccc(Br)cc2)Cn2ccnc2)c(Cl)c1.O=C(O)C(=O)O (stereo not given) | 100
Fc1ccc(OCCC(Cn2ccnc2)c2ccc(Cl)cc2Cl)cc1.O=C(O)C(=O)O (stereo not given) | 10
Clc1ccc(C(CCOc2ccccc2Cl)Cn2ccnc2)c(Cl)c1.O=C(O)C(=O)O (stereo not given) | 10

tested on: Aspergillus fumigatus; test: Antifungal activity against Aspergillus fumigatus assessed as lowest dose required to total inhibition of fungal growth; format: functional

Structure (SMILES) | GI [µg/mL]
Clc1ccc(OCCCC(Cn2ccnc2)c2ccc(Cl)cc2Cl)cc1.O=C(O)C(=O)O (stereo not given) | 100
Clc1ccc(OCCC(Cn2ccnc2)c2ccc(Cl)cc2Cl)c(Cl)c1.O=C(O)C(=O)O (stereo not given) | 100
Clc1ccc(C(CCOc2ccccc2)Cn2ccnc2)c(Cl)c1.O=C(O)C(=O)O (stereo not given) | 100
Clc1ccc(C(CCCOc2ccc(Br)cc2)Cn2ccnc2)c(Cl)c1.O=C(O)C(=O)O (stereo not given) | >100
Fc1ccc(OCCC(Cn2ccnc2)c2ccc(Cl)cc2Cl)cc1.O=C(O)C(=O)O (stereo not given) | 100
Clc1ccc(C(CCOc2ccccc2Cl)Cn2ccnc2)c(Cl)c1.O=C(O)C(=O)O (stereo not given) | >100

tested on: Phialophora verrucosa; test: Antifungal activity against Phialophora verrucosa assessed as lowest dose required to total inhibition of fungal growth; format: functional

Structure (SMILES) | GI [µg/mL]
Clc1ccc(OCCCC(Cn2ccnc2)c2ccc(Cl)cc2Cl)cc1.O=C(O)C(=O)O (stereo not given) | 100
Clc1ccc(OCCC(Cn2ccnc2)c2ccc(Cl)cc2Cl)c(Cl)c1.O=C(O)C(=O)O (stereo not given) | 100
Clc1ccc(C(CCOc2ccccc2)Cn2ccnc2)c(Cl)c1.O=C(O)C(=O)O (stereo not given) | 100
Clc1ccc(C(CCCOc2ccc(Br)cc2)Cn2ccnc2)c(Cl)c1.O=C(O)C(=O)O (stereo not given) | 100
Fc1ccc(OCCC(Cn2ccnc2)c2ccc(Cl)cc2Cl)cc1.O=C(O)C(=O)O (stereo not given) | 100
Clc1ccc(C(CCOc2ccccc2Cl)Cn2ccnc2)c(Cl)c1.O=C(O)C(=O)O (stereo not given) | 100

tested on: Staphylococcus haemolyticus; test: Antibaterial activity against Staphylococcus haemolyticus assessed as lowest dose required to total inhibition of bacterial growth; format: functional

Structure (SMILES) | GI [µg/mL]
Clc1ccc(OCCCC(Cn2ccnc2)c2ccc(Cl)cc2Cl)cc1.O=C(O)C(=O)O (stereo not given) | 1
Clc1ccc(OCCC(Cn2ccnc2)c2ccc(Cl)cc2Cl)c(Cl)c1.O=C(O)C(=O)O (stereo not given) | 1
Clc1ccc(C(CCOc2ccccc2)Cn2ccnc2)c(Cl)c1.O=C(O)C(=O)O (stereo not given) | 10
Clc1ccc(C(CCCOc2ccc(Br)cc2)Cn2ccnc2)c(Cl)c1.O=C(O)C(=O)O (stereo not given) | 10
Fc1ccc(OCCC(Cn2ccnc2)c2ccc(Cl)cc2Cl)cc1.O=C(O)C(=O)O (stereo not given) | 10
Clc1ccc(C(CCOc2ccccc2Cl)Cn2ccnc2)c(Cl)c1.O=C(O)C(=O)O (stereo not given) | 1

tested on: Mucor; test: Antifungal activity against Mucor species assessed as lowest dose required to total inhibition of fungal growth; format: functional

Structure (SMILES) | GI [µg/mL]
Clc1ccc(OCCCC(Cn2ccnc2)c2ccc(Cl)cc2Cl)cc1.O=C(O)C(=O)O (stereo not given) | >100
Clc1ccc(OCCC(Cn2ccnc2)c2ccc(Cl)cc2Cl)c(Cl)c1.O=C(O)C(=O)O (stereo not given) | 100
Clc1ccc(C(CCOc2ccccc2)Cn2ccnc2)c(Cl)c1.O=C(O)C(=O)O (stereo not given) | 100
Clc1ccc(C(CCCOc2ccc(Br)cc2)Cn2ccnc2)c(Cl)c1.O=C(O)C(=O)O (stereo not given) | >100
Fc1ccc(OCCC(Cn2ccnc2)c2ccc(Cl)cc2Cl)cc1.O=C(O)C(=O)O (stereo not given) | 100
Clc1ccc(C(CCOc2ccccc2Cl)Cn2ccnc2)c(Cl)c1.O=C(O)C(=O)O (stereo not given) | >100

tested on: Saprolegnia; test: Antifungal activity against Saprolegnia species assessed as lowest dose required to total inhibition of fungal growth; format: functional

Structure (SMILES) | GI [µg/mL]
Clc1ccc(OCCCC(Cn2ccnc2)c2ccc(Cl)cc2Cl)cc1.O=C(O)C(=O)O (stereo not given) | 10
Clc1ccc(OCCC(Cn2ccnc2)c2ccc(Cl)cc2Cl)c(Cl)c1.O=C(O)C(=O)O (stereo not given) | 100
Clc1ccc(C(CCOc2ccccc2)Cn2ccnc2)c(Cl)c1.O=C(O)C(=O)O (stereo not given) | 100
Clc1ccc(C(CCCOc2ccc(Br)cc2)Cn2ccnc2)c(Cl)c1.O=C(O)C(=O)O (stereo not given) | 100
Fc1ccc(OCCC(Cn2ccnc2)c2ccc(Cl)cc2Cl)cc1.O=C(O)C(=O)O (stereo not given) | 10
Clc1ccc(C(CCOc2ccccc2Cl)Cn2ccnc2)c(Cl)c1.O=C(O)C(=O)O (stereo not given) | 100

tested on: Streptococcus pyogenes; test: Antibaterial activity against Streptococcus pyogenes assessed as lowest dose required to total inhibition of bacterial growth; format: functional

Structure (SMILES) | GI [µg/mL]
Clc1ccc(OCCCC(Cn2ccnc2)c2ccc(Cl)cc2Cl)cc1.O=C(O)C(=O)O (stereo not given) | <1
Clc1ccc(OCCC(Cn2ccnc2)c2ccc(Cl)cc2Cl)c(Cl)c1.O=C(O)C(=O)O (stereo not given) | <1
Clc1ccc(C(CCOc2ccccc2)Cn2ccnc2)c(Cl)c1.O=C(O)C(=O)O (stereo not given) | 1
Clc1ccc(C(CCCOc2ccc(Br)cc2)Cn2ccnc2)c(Cl)c1.O=C(O)C(=O)O (stereo not given) | <1
Fc1ccc(OCCC(Cn2ccnc2)c2ccc(Cl)cc2Cl)cc1.O=C(O)C(=O)O (stereo not given) | 1
Clc1ccc(C(CCOc2ccccc2Cl)Cn2ccnc2)c(Cl)c1.O=C(O)C(=O)O (stereo not given) | <1

tested on: Trichophyton rubrum; test: Antifungal activity against Trichophyton rubrum assessed as lowest dose required to total inhibition of fungal growth; format: functional

Structure (SMILES) | GI [µg/mL]
Clc1ccc(OCCCC(Cn2ccnc2)c2ccc(Cl)cc2Cl)cc1.O=C(O)C(=O)O (stereo not given) | <1
Clc1ccc(OCCC(Cn2ccnc2)c2ccc(Cl)cc2Cl)c(Cl)c1.O=C(O)C(=O)O (stereo not given) | <1
Clc1ccc(C(CCOc2ccccc2)Cn2ccnc2)c(Cl)c1.O=C(O)C(=O)O (stereo not given) | <1
Clc1ccc(C(CCCOc2ccc(Br)cc2)Cn2ccnc2)c(Cl)c1.O=C(O)C(=O)O (stereo not given) | 10
Fc1ccc(OCCC(Cn2ccnc2)c2ccc(Cl)cc2Cl)cc1.O=C(O)C(=O)O (stereo not given) | <1
Clc1ccc(C(CCOc2ccccc2Cl)Cn2ccnc2)c(Cl)c1.O=C(O)C(=O)O (stereo not given) | <1

tested on: Candida albicans; test: Antifungal activity against Candida albicans assessed as lowest dose required to total inhibition of fungal growth; format: functional

Structure (SMILES) | GI [µg/mL]
Clc1ccc(OCCCC(Cn2ccnc2)c2ccc(Cl)cc2Cl)cc1.O=C(O)C(=O)O (stereo not given) | >100
Clc1ccc(OCCC(Cn2ccnc2)c2ccc(Cl)cc2Cl)c(Cl)c1.O=C(O)C(=O)O (stereo not given) | 100
Clc1ccc(C(CCOc2ccccc2)Cn2ccnc2)c(Cl)c1.O=C(O)C(=O)O (stereo not given) | 10
Clc1ccc(C(CCCOc2ccc(Br)cc2)Cn2ccnc2)c(Cl)c1.O=C(O)C(=O)O (stereo not given) | >100
Fc1ccc(OCCC(Cn2ccnc2)c2ccc(Cl)cc2Cl)cc1.O=C(O)C(=O)O (stereo not given) | 10
Clc1ccc(C(CCOc2ccccc2Cl)Cn2ccnc2)c(Cl)c1.O=C(O)C(=O)O (stereo not given) | >100
